Results from article PMC5010537, “Purification and characterization of laccase from Marasmius species BBKAV79 and effective decolorization of selected textile dyes” (3 Biotech, 2016).

Tested on: T1, laccase from Marasmius sp. BBKAV79
T1 construct: gene benzenediol:oxygen oxidoreductase; native extracellular enzyme purified from culture supernatant (ammonium sulfate, Sephadex G-100, DEAE-cellulose); monomer, ~75 kDa by native PAGE
Experiment: absorbance at […] nm, Lineweaver-Burk plot
Type: biochemical
Settings: 100 mM sodium acetate buffer pH 5.5; guaiacol 0.18-10 mM; free enzyme
From the text: BBKAV79 | K m and V max of purified laccase from Marasmius sp.

Km: 3.03 mM
Structure (SMILES): COc1ccccc1O [guaiacol]
